Results from PubChem BioAssay (NCI).
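Results reflect a 48-hour exposure of cells in 96-well plates to compound at five concentrations. At the TGI there is no net growth.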

Experiments:
Experiment in all cases: NCI tumour cell line growth inhibition, 48 h
SK-MEL-28 melanoma = test system: SK-MEL-28 melanoma
A549 NSCLC = test system: A549 NSCLC
HCT-15 colon = test system: HCT-15 colon
SF-539 CNS = test system: SF-539 CNS
NCI-H460 lung = test system: NCI-H460 lung
786-0 renal = test system: 786-0 renal
LXFL 529 NSCLC = test system: LXFL 529 NSCLC
SW-620 colon = test system: SW-620 colon
A498 renal = test system: A498 renal
NCI-H23 lung = test system: NCI-H23 lung
EKVX NSCLC = test system: EKVX NSCLC
SNB-75 CNS = test system: SNB-75 CNS
COLO 205 colon = test system: COLO 205 colon
U251 CNS = test system: U251 CNS
SN12C renal = test system: SN12C renal
K-562 leukemia = test system: K-562 leukemia
OVCAR-3 ovarian = test system: OVCAR-3 ovarian
SK-OV-3 ovarian = test system: SK-OV-3 ovarian
TK-10 renal = test system: TK-10 renal
SK-MEL-5 melanoma = test system: SK-MEL-5 melanoma
HL-60(TB) leukemia = test system: HL-60(TB) leukemia
UACC-62 melanoma = test system: UACC-62 melanoma
MOLT-4 leukemia = test system: MOLT-4 leukemia
IGROV1 ovarian = test system: IGROV1 ovarian
M14 melanoma = test system: M14 melanoma
KM12 colon = test system: KM12 colon
NCI-H522 lung = test system: NCI-H522 lung
HCT-116 colon = test system: HCT-116 colon
MALME-3M melanoma = test system: MALME-3M melanoma
ACHN renal = test system: ACHN renal
CCRF-CEM leukemia = test system: CCRF-CEM leukemia
M19-MEL melanoma = test system: M19-MEL melanoma
NCI-H226 lung = test system: NCI-H226 lung
HCC-2998 colon = test system: HCC-2998 colon
UACC-257 melanoma = test system: UACC-257 melanoma
CAKI-1 renal = test system: CAKI-1 renal
KM20L2 colon = test system: KM20L2 colon
SK-MEL-2 melanoma = test system: SK-MEL-2 melanoma
SF-295 CNS = test system: SF-295 CNS
SF-268 CNS = test system: SF-268 CNS
UO-31 renal = test system: UO-31 renal
DMS 114 small cell lung = test system: DMS 114 small cell lung
OVCAR-4 ovarian = test system: OVCAR-4 ovarian
RPMI-8226 leukemia = test system: RPMI-8226 leukemia
SNB-19 CNS = test system: SNB-19 CNS
HT29 colon = test system: HT29 colon
DMS 273 small cell lung = test system: DMS 273 small cell lung
HOP-62 NSCLC = test system: HOP-62 NSCLC
LOX IMVI melanoma = test system: LOX IMVI melanoma
OVCAR-8 ovarian = test system: OVCAR-8 ovarian
DLD-1 colon = test system: DLD-1 colon
XF 498 CNS = test system: XF 498 CNS
OVCAR-5 ovarian = test system: OVCAR-5 ovarian
HOP-92 NSCLC = test system: HOP-92 NSCLC
HOP-18 NSCLC = test system: HOP-18 NSCLC
RXF 393 renal = test system: RXF 393 renal
SR leukemia = test system: SR leukemia

In the case of `COc1ccccc1N=NC(C(=O)c1ccccc1)C(=O)c1ccccc1`, the TGI (SK-MEL-28 melanoma) is reported as over 100 µM, the TGI (A549 NSCLC) is reported as 78.3 µM and the TGI (HCT-15 colon) is reported as 47.6 µM. It also gave a TGI (SF-539 CNS) of over 100 µM, a TGI (NCI-H460 lung) of 82.2 µM and a TGI (786-0 renal) of over 100 µM. It also gave a TGI (LXFL 529 NSCLC) of over 100 µM, a TGI (SW-620 colon) of over 100 µM and a TGI (A498 renal) of over 100 µM. The TGI (NCI-H23 lung) was 68.1 µM, the TGI (EKVX NSCLC) was 67.8 µM and the TGI (SNB-75 CNS) was 82.3 µM. The TGI (COLO 205 colon) was over 100 µM, the TGI (U251 CNS) was over 100 µM and the TGI (SN12C renal) was 53.1 µM. For the same molecule, the TGI (K-562 leukemia) was over 100 µM, the TGI (OVCAR-3 ovarian) was over 100 µM and the TGI (SK-OV-3 ovarian) was 89.4 µM. For the same molecule, the TGI (TK-10 renal) was over 100 µM, the TGI (SK-MEL-5 melanoma) was 54.5 µM and the TGI (HL-60(TB) leukemia) was 33.7 µM. The TGI (UACC-62 melanoma) was 52.3 µM, the TGI (MOLT-4 leukemia) was 60.4 µM and the TGI (IGROV1 ovarian) was over 100 µM. For the same molecule, the TGI (M14 melanoma) was 31.6 µM, the TGI (KM12 colon) was over 100 µM and the TGI (NCI-H522 lung) was 47 µM. The TGI (HCT-116 colon) was 28.6 µM, the TGI (MALME-3M melanoma) was 88.9 µM and the TGI (ACHN renal) was 83.6 µM. For the same molecule, the TGI (CCRF-CEM leukemia) was 60 µM, the TGI (M19-MEL melanoma) was 41.3 µM and the TGI (NCI-H226 lung) was 35.9 µM. For the same molecule, the TGI (HCC-2998 colon) was 70.4 µM, the TGI (UACC-257 melanoma) was 89.2 µM and the TGI (CAKI-1 renal) was 77.3 µM. The TGI (KM20L2 colon) was 58.2 µM, the TGI (SK-MEL-2 melanoma) was 53.4 µM and the TGI (SF-295 CNS) was 87.6 µM. It also gave a TGI (SF-268 CNS) of over 100 µM, a TGI (UO-31 renal) of 37.3 µM and a TGI (DMS 114 small cell lung) of 40.5 µM. For the same molecule, the TGI (OVCAR-4 ovarian) was 74.2 µM, the TGI (RPMI-8226 leukemia) was 58.7 µM and the TGI (SNB-19 CNS) was 70.1 µM. For the same molecule, the TGI (HT29 colon) was 82.3 µM, the TGI (DMS 273 small cell lung) was 57.9 µM and the TGI (HOP-62 NSCLC) was 52.1 µM. The TGI (LOX IMVI melanoma) was 51.1 µM, the TGI (OVCAR-8 ovarian) was over 100 µM and the TGI (DLD-1 colon) was 54.9 µM. The TGI (XF 498 CNS) was 53.5 µM and the TGI (OVCAR-5 ovarian) was 71.5 µM.

Work on `O=C(CCC(=O)Nc1ccc(Cl)c(Cl)c1)CC(=O)c1ccc(Cl)cc1` yielded a TGI (A549 NSCLC) of over 100 µM, a TGI (HCT-15 colon) of over 100 µM and a TGI (SF-539 CNS) of over 100 µM. For the same molecule, the TGI (NCI-H460 lung) was over 100 µM, the TGI (786-0 renal) was over 100 µM and the TGI (LXFL 529 NSCLC) was over 100 µM. It also gave a TGI (SW-620 colon) of over 100 µM, a TGI (A498 renal) of over 100 µM and a TGI (NCI-H23 lung) of over 100 µM. It also gave a TGI (EKVX NSCLC) of over 100 µM, a TGI (COLO 205 colon) of over 100 µM and a TGI (U251 CNS) of over 100 µM. For the same molecule, the TGI (SN12C renal) was over 100 µM, the TGI (K-562 leukemia) was over 100 µM and the TGI (OVCAR-3 ovarian) was over 100 µM. The TGI (SK-OV-3 ovarian) was over 100 µM, the TGI (TK-10 renal) was over 100 µM and the TGI (HL-60(TB) leukemia) was over 100 µM. The TGI (UACC-62 melanoma) was over 100 µM, the TGI (MOLT-4 leukemia) was over 100 µM and the TGI (IGROV1 ovarian) was over 100 µM. For the same molecule, the TGI (M14 melanoma) was over 100 µM, the TGI (HOP-92 NSCLC) was over 100 µM and the TGI (KM12 colon) was over 100 µM. It also gave a TGI (NCI-H522 lung) of over 100 µM, a TGI (HCT-116 colon) of over 100 µM and a TGI (MALME-3M melanoma) of over 100 µM. It also gave a TGI (ACHN renal) of over 100 µM, a TGI (CCRF-CEM leukemia) of over 100 µM and a TGI (M19-MEL melanoma) of over 100 µM. The TGI (NCI-H226 lung) was over 100 µM, the TGI (HCC-2998 colon) was over 100 µM and the TGI (UACC-257 melanoma) was over 100 µM. For the same molecule, the TGI (CAKI-1 renal) was over 100 µM, the TGI (KM20L2 colon) was over 100 µM and the TGI (SK-MEL-2 melanoma) was over 100 µM. It also gave a TGI (SF-295 CNS) of over 100 µM, a TGI (SF-268 CNS) of over 100 µM and a TGI (UO-31 renal) of over 100 µM. For the same molecule, the TGI (DMS 114 small cell lung) was over 100 µM, the TGI (HOP-18 NSCLC) was over 100 µM and the TGI (OVCAR-4 ovarian) was over 100 µM. It also gave a TGI (RPMI-8226 leukemia) of over 100 µM, a TGI (SNB-19 CNS) of over 100 µM and a TGI (HT29 colon) of over 100 µM. For the same molecule, the TGI (DMS 273 small cell lung) was over 100 µM, the TGI (LOX IMVI melanoma) was over 100 µM and the TGI (OVCAR-8 ovarian) was over 100 µM. The TGI (DLD-1 colon) was over 100 µM, the TGI (XF 498 CNS) was over 100 µM and the TGI (OVCAR-5 ovarian) was over 100 µM.

`CCC1(O)C(=O)OCc2c1cc1n(c2=O)Cc2cc3cc(OC)c(OC)cc3nc2-1` (stereo not drawn) gave a TGI (SK-MEL-28 melanoma) of over 100 µM, a TGI (A549 NSCLC) of over 100 µM and a TGI (SF-539 CNS) of 35.2 µM. The TGI (NCI-H460 lung) was 28.5 µM, the TGI (786-0 renal) was 54.2 µM and the TGI (RXF 393 renal) was 71.8 µM. For the same molecule, the TGI (LXFL 529 NSCLC) was over 100 µM, the TGI (A498 renal) was over 100 µM and the TGI (NCI-H23 lung) was over 100 µM. It also gave a TGI (EKVX NSCLC) of over 100 µM, a TGI (SNB-75 CNS) of 41 µM and a TGI (COLO 205 colon) of over 100 µM. For the same molecule, the TGI (U251 CNS) was 35 µM, the TGI (SN12C renal) was 87.4 µM and the TGI (K-562 leukemia) was over 100 µM. For the same molecule, the TGI (OVCAR-3 ovarian) was over 100 µM, the TGI (SK-OV-3 ovarian) was 89 µM and the TGI (TK-10 renal) was over 100 µM. The TGI (SK-MEL-5 melanoma) was over 100 µM, the TGI (HL-60(TB) leukemia) was over 100 µM and the TGI (SR leukemia) was 7.68 µM. For the same molecule, the TGI (MOLT-4 leukemia) was over 100 µM, the TGI (IGROV1 ovarian) was 67.4 µM and the TGI (M14 melanoma) was over 100 µM. For the same molecule, the TGI (HOP-92 NSCLC) was over 100 µM, the TGI (KM12 colon) was over 100 µM and the TGI (NCI-H522 lung) was over 100 µM. For the same molecule, the TGI (HCT-116 colon) was over 100 µM, the TGI (MALME-3M melanoma) was over 100 µM and the TGI (ACHN renal) was 37.3 µM. The TGI (CCRF-CEM leukemia) was over 100 µM, the TGI (NCI-H226 lung) was 88.6 µM and the TGI (HCC-2998 colon) was over 100 µM. It also gave a TGI (UACC-257 melanoma) of over 100 µM, a TGI (KM20L2 colon) of over 100 µM and a TGI (SF-295 CNS) of over 100 µM. For the same molecule, the TGI (SF-268 CNS) was over 100 µM, the TGI (UO-31 renal) was over 100 µM and the TGI (DMS 114 small cell lung) was over 100 µM. The TGI (HOP-18 NSCLC) was over 100 µM, the TGI (OVCAR-4 ovarian) was over 100 µM and the TGI (RPMI-8226 leukemia) was over 100 µM. For the same molecule, the TGI (SNB-19 CNS) was 85.2 µM, the TGI (HT29 colon) was over 100 µM and the TGI (HOP-62 NSCLC) was 8.38 µM. It also gave a TGI (LOX IMVI melanoma) of over 100 µM, a TGI (OVCAR-8 ovarian) of over 100 µM and a TGI (XF 498 CNS) of over 100 µM. The TGI (OVCAR-5 ovarian) was over 100 µM.
